According to ChEMBL document CHEMBL1201862, “PubChem BioAssay data set” (2004):
Blank lines part the entries; values can stand above or below the molecule they belong to. Active and inactive are the calls of the source.

Columns and labels:
[1] = NIH-3T3 fibroblast cytotoxicity, dose response, cytotoxicity control, cell-based, fluorescence, Alamar Blue, secondary assay (AID 2327); type: functional;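 also: NIH-3T3 mouse fibroblasts cultured with fluconazole at 8 µg/mL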
[2] = insulin promoter down-regulators in MIN6 cells, imaging, high-content screening, mouse beta cells (AID 1628); type: functional
[3] = system: Streptococcus sp. 'group A'; experiment: growth inhibition of control SK(-) GAS strain, dose response, counter-screen for streptokinase expression inhibitor project, luminescence, kanamycin, BacTiterGlo, confirmation (AID 1900); type: functional, organism-based
cells [4] = type: functional, cell-based
[5] = cytotoxicity in MIN6 insulinoma cells, dose response, cytotoxicity control, cell-based, mouse insulinoma (AID 2122); type: functional;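 also: confirmatory high-throughput counterscreen run to flag cytotoxic compounds; mouse MIN-6 beta cells carrying an insulin promoter eGFP reporter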
[6] = C. albicans growth with fluconazole, confirmation, fluorescence, retest (AID 2467); type: functional, cell-based
cells [7] = type: functional, cell-based; remark: listed apart in the source
[8] = target: T1, Serine/threonine-protein phosphatase (Candida dubliniensis (strain CD36 / CBS 7987 / NCPF 3949 / NRRLY-17841) (Yeast), UniProt B9W6M3); experiment: calcineurin pathway inhibitors in yeast reporter, dose response, S. cerevisiae, CDRE-lacZ, luminescence, secondary (AID 2388); type: functional, cell-based;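 also: yeast reporter cells carrying a calcineurin-responsive lacZ construct stimulated with calcium chloride; luminescent beta-galactosidase reporter signal in whole cells rather than isolated phosphatase activity; potency for inhibition where a drop in reporter signal means calcineurin blockade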
T1 sequence (B9W6M3 whole entry): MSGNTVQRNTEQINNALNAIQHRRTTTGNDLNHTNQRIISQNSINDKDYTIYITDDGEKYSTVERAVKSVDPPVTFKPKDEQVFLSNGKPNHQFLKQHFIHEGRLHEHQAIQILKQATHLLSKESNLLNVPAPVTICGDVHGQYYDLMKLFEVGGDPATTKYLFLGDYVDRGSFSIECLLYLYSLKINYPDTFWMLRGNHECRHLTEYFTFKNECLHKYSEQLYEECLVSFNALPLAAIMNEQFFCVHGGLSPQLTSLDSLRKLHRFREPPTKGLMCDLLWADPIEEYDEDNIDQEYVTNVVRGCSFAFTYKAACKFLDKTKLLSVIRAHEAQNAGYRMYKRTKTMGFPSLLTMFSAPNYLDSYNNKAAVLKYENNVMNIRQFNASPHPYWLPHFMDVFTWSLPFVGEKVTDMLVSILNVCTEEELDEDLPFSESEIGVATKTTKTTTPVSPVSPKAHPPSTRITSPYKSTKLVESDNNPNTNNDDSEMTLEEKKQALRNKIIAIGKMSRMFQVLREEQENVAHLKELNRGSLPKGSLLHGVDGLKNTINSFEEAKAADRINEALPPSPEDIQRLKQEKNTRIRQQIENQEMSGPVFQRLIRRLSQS

Streptococcus = experiment: Group A Streptococcus viability loss, dose response, counter-screen for streptokinase expression inhibitor project, luminescence, BacTiterGlo (AID 1915); type: functional, organism-based;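 also: potency for reduction of bacterial viability or growth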
[9] = target: ATP-dependent molecular chaperone HSP82 (Candida albicans (strain WO-1) (Yeast), UniProt C4YTQ8); experiment: loss of DOC-induced GRE-beta-galactosidase reporter signal, dose response, Hsp90 inhibitor project, S. cerevisiae, luminescence (AID 2400); type: functional, cell-based;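 also: beta-galactosidase luminescence from glucocorticoid response element reporter as proxy for Hsp90 function; inhibitor potency where signal loss means Hsp90 inhibition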
ATP-dependent molecular chaperone HSP82, sequence (C4YTQ8 whole entry): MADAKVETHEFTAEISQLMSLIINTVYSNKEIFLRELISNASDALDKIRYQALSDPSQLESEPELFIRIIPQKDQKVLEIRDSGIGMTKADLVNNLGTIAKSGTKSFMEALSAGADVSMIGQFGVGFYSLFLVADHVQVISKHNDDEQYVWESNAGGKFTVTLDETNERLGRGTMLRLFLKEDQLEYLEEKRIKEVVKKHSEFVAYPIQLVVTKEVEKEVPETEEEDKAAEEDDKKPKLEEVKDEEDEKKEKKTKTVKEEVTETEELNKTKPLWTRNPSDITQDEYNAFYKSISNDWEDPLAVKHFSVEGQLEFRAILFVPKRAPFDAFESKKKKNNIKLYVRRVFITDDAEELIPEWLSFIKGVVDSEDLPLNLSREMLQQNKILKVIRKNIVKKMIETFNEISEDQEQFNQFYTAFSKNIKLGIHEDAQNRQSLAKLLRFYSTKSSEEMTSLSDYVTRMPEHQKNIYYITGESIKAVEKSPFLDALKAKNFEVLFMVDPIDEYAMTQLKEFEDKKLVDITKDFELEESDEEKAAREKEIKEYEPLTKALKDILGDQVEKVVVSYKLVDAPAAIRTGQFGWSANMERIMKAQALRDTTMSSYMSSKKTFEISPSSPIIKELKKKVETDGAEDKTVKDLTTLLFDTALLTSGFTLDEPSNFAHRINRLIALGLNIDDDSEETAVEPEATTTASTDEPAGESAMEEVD

HEK293 = experiment: cells; type: functional, cell-based; details: Homo sapiens
[10] = target: T2, Nuclear receptor subfamily 0 group B member 1 (Homo sapiens, UniProt P51843); experiment: Luminescence-based cell-based high throughput dose response assay for inhibitors of the orphan nuclear receptor subfamily 0, group B, member 1 (DAX1; NR0B1). [Related pubchem assays (depositor defined):AID504766, AID504790]; type: functional
T2 sequence (P51843 whole entry): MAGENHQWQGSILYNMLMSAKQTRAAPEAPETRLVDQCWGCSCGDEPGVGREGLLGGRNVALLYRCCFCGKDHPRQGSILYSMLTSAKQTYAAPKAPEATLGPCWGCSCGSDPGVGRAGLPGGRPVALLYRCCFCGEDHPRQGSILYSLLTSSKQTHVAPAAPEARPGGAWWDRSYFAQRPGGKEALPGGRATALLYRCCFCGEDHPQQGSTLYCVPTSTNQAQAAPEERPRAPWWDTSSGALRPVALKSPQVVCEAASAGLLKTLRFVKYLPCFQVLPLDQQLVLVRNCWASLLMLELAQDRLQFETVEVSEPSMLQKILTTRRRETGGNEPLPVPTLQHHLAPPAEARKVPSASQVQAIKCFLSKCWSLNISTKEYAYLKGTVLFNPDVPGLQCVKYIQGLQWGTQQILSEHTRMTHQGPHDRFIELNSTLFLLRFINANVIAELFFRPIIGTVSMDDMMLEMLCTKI

[11] = target: T3, DNA repair and recombination protein RAD54-like (Homo sapiens, UniProt Q92698); experiment: inhibitors of human RAD54 branch migration, confirmation, biochemical, fluorescence, cherry-picked samples, dose series (AID 651657); type: functional
T3 sequence (Q92698 whole entry): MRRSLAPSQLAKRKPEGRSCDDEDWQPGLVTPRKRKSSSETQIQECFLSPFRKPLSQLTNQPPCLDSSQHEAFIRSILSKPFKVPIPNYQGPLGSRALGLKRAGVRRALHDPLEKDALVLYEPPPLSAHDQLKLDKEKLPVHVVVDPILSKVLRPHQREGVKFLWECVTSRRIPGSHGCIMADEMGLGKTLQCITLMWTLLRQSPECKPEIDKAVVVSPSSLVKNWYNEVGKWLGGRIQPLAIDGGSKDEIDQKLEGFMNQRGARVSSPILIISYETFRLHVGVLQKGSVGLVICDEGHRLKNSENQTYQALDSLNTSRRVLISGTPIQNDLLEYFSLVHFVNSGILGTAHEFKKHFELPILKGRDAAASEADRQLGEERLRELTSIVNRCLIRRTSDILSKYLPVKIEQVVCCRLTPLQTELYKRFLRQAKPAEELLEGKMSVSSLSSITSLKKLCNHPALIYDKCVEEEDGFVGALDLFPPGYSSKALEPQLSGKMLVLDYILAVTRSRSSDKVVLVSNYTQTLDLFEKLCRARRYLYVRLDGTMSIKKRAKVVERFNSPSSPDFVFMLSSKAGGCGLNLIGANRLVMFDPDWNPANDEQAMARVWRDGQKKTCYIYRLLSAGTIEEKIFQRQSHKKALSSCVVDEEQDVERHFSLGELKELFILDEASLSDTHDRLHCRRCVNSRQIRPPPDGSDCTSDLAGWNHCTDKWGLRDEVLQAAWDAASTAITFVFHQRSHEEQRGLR

[12] = target: T4, Sentrin-specific protease 8 (Homo sapiens, UniProt Q96LD8); experiment: SENP8 protease inhibitors, SAR follow-up, biochemical, luminescence (AID 504501); type: functional
T4 sequence (Q96LD8 whole entry): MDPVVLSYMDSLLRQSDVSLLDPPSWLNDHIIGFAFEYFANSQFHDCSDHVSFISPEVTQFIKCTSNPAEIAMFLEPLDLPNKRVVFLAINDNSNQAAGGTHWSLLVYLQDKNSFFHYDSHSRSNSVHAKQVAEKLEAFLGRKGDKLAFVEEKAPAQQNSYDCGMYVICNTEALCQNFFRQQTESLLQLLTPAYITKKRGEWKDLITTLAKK

Caspase-3 = target: T5, Caspase-3 (Homo sapiens, UniProt P42574); experiment: SAR Analysis of small molecule inhibitors of Sentrin-specific proteases (SENPs) using a Caspase-3 Selectivity assay. [Related pubchem assays (depositor defined):AID2540, AID2599, AID434973, AID489001]; type: functional
T5 sequence (P42574 whole entry): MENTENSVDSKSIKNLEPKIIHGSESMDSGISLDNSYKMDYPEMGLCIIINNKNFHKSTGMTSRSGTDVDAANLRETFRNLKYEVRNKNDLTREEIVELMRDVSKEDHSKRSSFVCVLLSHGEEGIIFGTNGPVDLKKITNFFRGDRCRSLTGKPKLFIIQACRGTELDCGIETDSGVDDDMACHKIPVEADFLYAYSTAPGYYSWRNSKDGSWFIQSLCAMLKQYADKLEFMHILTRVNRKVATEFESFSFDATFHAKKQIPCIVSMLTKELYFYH

[13] = target: T6, Sentrin-specific protease 6 (Homo sapiens, UniProt Q9GZR1); experiment: SAR Analysis of small molecule inhibitors of Sentrin-specific protease 6 (SENP6) using a Luminescent assay. [Related pubchem assays (depositor defined):AID2582, AID2599]; type: functional
T6 sequence (Q9GZR1 whole entry): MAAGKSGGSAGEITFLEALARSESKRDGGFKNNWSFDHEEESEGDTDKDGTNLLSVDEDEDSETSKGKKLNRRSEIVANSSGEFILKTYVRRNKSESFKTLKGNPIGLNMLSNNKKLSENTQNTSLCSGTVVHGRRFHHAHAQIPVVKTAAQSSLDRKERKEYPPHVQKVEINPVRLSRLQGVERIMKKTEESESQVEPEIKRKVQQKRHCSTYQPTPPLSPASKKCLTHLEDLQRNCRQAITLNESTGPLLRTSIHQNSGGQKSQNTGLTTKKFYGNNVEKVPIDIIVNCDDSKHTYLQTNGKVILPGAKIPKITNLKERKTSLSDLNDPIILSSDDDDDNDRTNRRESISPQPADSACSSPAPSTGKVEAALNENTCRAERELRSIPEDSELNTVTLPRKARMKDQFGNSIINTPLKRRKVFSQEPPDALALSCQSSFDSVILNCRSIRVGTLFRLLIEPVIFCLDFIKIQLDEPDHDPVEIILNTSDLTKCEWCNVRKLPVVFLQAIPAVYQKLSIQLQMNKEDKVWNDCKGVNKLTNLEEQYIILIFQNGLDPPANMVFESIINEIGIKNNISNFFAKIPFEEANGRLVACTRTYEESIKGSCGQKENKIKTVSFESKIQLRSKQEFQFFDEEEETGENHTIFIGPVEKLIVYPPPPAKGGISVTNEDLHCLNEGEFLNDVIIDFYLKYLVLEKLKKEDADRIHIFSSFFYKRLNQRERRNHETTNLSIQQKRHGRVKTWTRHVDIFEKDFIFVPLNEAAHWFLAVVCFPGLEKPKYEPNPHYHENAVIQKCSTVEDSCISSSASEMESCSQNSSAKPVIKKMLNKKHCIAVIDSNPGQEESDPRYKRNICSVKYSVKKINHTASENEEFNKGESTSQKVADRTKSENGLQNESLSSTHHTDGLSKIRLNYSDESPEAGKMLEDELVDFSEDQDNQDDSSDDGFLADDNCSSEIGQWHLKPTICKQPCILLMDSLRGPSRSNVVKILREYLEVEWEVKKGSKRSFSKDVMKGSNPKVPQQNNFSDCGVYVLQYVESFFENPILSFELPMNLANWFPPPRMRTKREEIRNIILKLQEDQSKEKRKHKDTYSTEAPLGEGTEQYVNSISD

[14] = target: T7, Sentrin-specific protease 7 (Homo sapiens, UniProt Q9BQF6); experiment: SENP7 protease inhibitors, SAR follow-up, biochemical, luminescence (AID 504497); type: functional
T7 sequence (Q9BQF6 whole entry): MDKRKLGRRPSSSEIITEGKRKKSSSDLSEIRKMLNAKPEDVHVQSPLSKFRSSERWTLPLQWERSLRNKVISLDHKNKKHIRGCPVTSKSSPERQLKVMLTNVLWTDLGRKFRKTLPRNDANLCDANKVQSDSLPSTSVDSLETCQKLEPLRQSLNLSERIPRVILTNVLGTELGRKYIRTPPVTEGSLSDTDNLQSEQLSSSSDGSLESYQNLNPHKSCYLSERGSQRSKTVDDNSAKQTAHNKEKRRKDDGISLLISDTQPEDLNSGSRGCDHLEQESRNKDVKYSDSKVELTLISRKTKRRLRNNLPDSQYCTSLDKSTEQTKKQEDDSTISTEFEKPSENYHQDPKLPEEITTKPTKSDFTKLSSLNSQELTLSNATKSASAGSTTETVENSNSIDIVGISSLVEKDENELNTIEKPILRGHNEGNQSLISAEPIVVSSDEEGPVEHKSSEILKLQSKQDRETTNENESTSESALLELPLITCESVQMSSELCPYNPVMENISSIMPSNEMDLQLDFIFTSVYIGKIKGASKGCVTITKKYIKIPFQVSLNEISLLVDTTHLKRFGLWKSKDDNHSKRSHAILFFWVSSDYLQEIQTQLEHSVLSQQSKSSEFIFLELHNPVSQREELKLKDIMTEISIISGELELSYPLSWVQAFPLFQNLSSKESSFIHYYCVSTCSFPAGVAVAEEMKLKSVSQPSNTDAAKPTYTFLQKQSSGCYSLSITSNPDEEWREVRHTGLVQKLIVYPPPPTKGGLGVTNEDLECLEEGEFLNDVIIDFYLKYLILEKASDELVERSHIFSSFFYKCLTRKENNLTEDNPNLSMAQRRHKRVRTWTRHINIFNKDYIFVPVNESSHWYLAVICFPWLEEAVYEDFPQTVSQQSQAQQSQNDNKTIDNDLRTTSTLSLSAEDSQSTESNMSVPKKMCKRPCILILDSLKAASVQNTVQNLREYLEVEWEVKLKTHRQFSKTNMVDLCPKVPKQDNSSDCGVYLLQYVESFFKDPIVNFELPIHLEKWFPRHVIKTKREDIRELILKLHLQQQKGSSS

SMILES: Oc1ccc(N=Nc2ccc3c(c2)OCCO3)c2cccnc12
EC50 [1]: 13.7 µM (inconclusive)
IC50 [2]: 2.15 µM (active)
EC50 [3]: 0.352 µM (active)
EC50 (cells [4]): 5.17 µM (active)
IC50 [5]: 1.37 µM (active)
EC50 [6]: 1.24 µM (active)
EC50 (cells [7]): 45.6 µM (active)
EC50 [8]: > 180 µM (inactive)
EC50 (Streptococcus): 1.15 µM (active)
EC50 [9]: 12.8 µM (active)

SMILES: Cc1ccc(NC(=O)CNC(=O)c2ccc(Oc3ccccc3)cc2)nc1
EC50 [1]: > 150 µM (inactive)
EC50 [6]: 1.24 µM (active)
EC50 [8]: > 180 µM (inactive)
EC50 [9]: 21.7 µM (active)

SMILES: CCCN(CCC)CCCNC(=O)c1cc2c(=O)n(C)c3ccccc3c2n1C
IC50 (HEK293): 24.7 µM (inactive)
IC50 [10]: > 67.5 µM (inactive)
AC50 [11]: 36.8 µM (active)

SMILES: Cc1ccc(CCNC(=O)CC2Oc3ccc(C)cc3NC2=O)cc1 (centres undefined)
IC50 (HEK293): > 67.5 µM (inactive)
IC50 [10]: > 67.5 µM (inactive)

SMILES: Fc1ccc(Nc2nc(-c3cccnc3)cs2)cc1
IC50 (HEK293): > 67.5 µM (inactive)
IC50 [10]: > 67.5 µM (inactive)

IC50 (Caspase-3): 1.09 µM (active)
IC50 [13]: 1.75 µM (active)
IC50 [14]: 1.55 µM (active)
SMILES: Oc1ccccc1-c1nc(-c2ccccc2)no1
IC50 [12]: 1.86 µM (active)

IC50 (Caspase-3): > 99 µM (inactive)
IC50 [13]: > 99 µM (inactive)
IC50 [14]: > 99 µM (inactive)
SMILES: CCCC(=O)Nc1ccc(-c2nc3cc(Cl)ccc3o2)cc1
IC50 [12]: > 99 µM (inactive)
